# Experimental data published in US6737383B1, “Herbicidal oxadiazolidines” (priority 1999, dated 2004).
# Assays:
# [1] = test system: goosegrass; assay: Test D goosegrass; assay type: in vivo, Eleusine indica; conditions: Postemergence, 0 to 100 scale
# [2] = test system: large crabgrass; assay: Test D large crabgrass; assay type: in vivo, Digitaria sanguinalis; conditions: Postemergence, 0 to 100 scale
# [3] = test system: purple nutsedge; assay: Test D purple nutsedge; assay type: in vivo, Cyperus rotundus; conditions: Postemergence, 0 to 100 scale
# [4] = test system: Green foxtail; assay: Test D green foxtail; assay type: in vivo; conditions: Rate 250 g/ha; Postemergence; 0 to 100 scale
# [5] = test system: Green foxtail; assay: Test D green foxtail; assay type: in vivo; conditions: Postemergence, 0 to 100 scale, 0 no injury, 100 complete control
# [6] = test system: Green foxtail; assay: Test D green foxtail; assay type: in vivo; conditions: Rate 250 g/ha; Postemergence; 0 to 100 scale; remark: listed apart in the source
# [7] = Rate 16 g/ha, 0 no injury, 100 complete control
# [8] = Rate 32 g/ha, 0 no injury, 100 complete control
# [9] = Rate 64 g/ha, 0 no injury, 100 complete control
# [10] = Rate 125 g/ha, 0 no injury, 100 complete control
Compound,"Plant response rating, Goosegrass [1, 7]","Plant response rating, Goosegrass [1, 8]","Plant response rating, Goosegrass [1, 9]","Plant response rating, Goosegrass [1, 10]","Plant response rating, Goosegrass ([1]; Rate 250 g/ha)","Plant response rating Large crabgrass [2, 7]","Plant response rating Large crabgrass [2, 8]","Plant response rating Large crabgrass [2, 9]","Plant response rating Large crabgrass [2, 10]",Plant response rating Large crabgrass ([2]; Rate 250 g/ha),"Plant response rating, Purple nutsedge [3, 7]","Plant response rating, Purple nutsedge [3, 8]","Purple nutsedge plant response rating [3, 9]","Purple nutsedge plant response rating [3, 10]","Plant response rating, Purple nutsedge ([3]; Rate 250 g/ha)","Plant response rating, Green foxtail [4]","Plant response rating, Green foxtail ([5]; Rate 16 g/ha)","Plant response rating, Green foxtail ([5]; Rate 32 g/ha)","Plant response rating, Green foxtail [6]"
COCC(C)n1c(=O)on(C(=O)N(c2ccc(F)cc2F)C(C)C)c1=O (centres unmarked) [Compound 352],0,90,100,100,100,0,100,100,100,100,0,0,0,0,0,100,0,100,100
CC(C)N(C(=O)n1oc(=O)n(C2(C)CC2)c1=O)c1ccccc1 [Compound 360],20,100,100,100,100,0,80,100,100,100,0,0,0,10,20,100,0,70,100
